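Assay format: 96-well plates, 48-hour exposure. TGI marks complete inhibition of growth.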
What was measured:
Experiment in all cases: NCI tumour cell line growth inhibition, 48 h
DMS 114 small cell lung = system: DMS 114 small cell lung
NCI-H23 lung = system: NCI-H23 lung
DLD-1 colon = system: DLD-1 colon
SF-295 CNS = system: SF-295 CNS
M14 melanoma = system: M14 melanoma
RPMI-8226 leukemia = system: RPMI-8226 leukemia
UO-31 renal = system: UO-31 renal
SNB-19 CNS = system: SNB-19 CNS
CAKI-1 renal = system: CAKI-1 renal
SNB-75 CNS = system: SNB-75 CNS
786-0 renal = system: 786-0 renal
SK-MEL-5 melanoma = system: SK-MEL-5 melanoma
OVCAR-8 ovarian = system: OVCAR-8 ovarian
HT29 colon = system: HT29 colon
TK-10 renal = system: TK-10 renal
SN12C renal = system: SN12C renal
SK-OV-3 ovarian = system: SK-OV-3 ovarian
OVCAR-5 ovarian = system: OVCAR-5 ovarian
A549 NSCLC = system: A549 NSCLC
OVCAR-3 ovarian = system: OVCAR-3 ovarian
U251 CNS = system: U251 CNS
HCC-2998 colon = system: HCC-2998 colon
A498 renal = system: A498 renal
MOLT-4 leukemia = system: MOLT-4 leukemia
NCI-H226 lung = system: NCI-H226 lung
XF 498 CNS = system: XF 498 CNS
KM12 colon = system: KM12 colon
IGROV1 ovarian = system: IGROV1 ovarian
HOP-92 NSCLC = system: HOP-92 NSCLC
SNB-78 CNS = system: SNB-78 CNS
SF-539 CNS = system: SF-539 CNS
MALME-3M melanoma = system: MALME-3M melanoma
KM20L2 colon = system: KM20L2 colon
SW-620 colon = system: SW-620 colon
HCT-116 colon = system: HCT-116 colon
LOX IMVI melanoma = system: LOX IMVI melanoma
RXF 393 renal = system: RXF 393 renal
NCI-H460 lung = system: NCI-H460 lung
SF-268 CNS = system: SF-268 CNS
SR leukemia = system: SR leukemia
UACC-257 melanoma = system: UACC-257 melanoma
EKVX NSCLC = system: EKVX NSCLC
UACC-62 melanoma = system: UACC-62 melanoma
M19-MEL melanoma = system: M19-MEL melanoma
SK-MEL-28 melanoma = system: SK-MEL-28 melanoma
LXFL 529 NSCLC = system: LXFL 529 NSCLC
OVCAR-4 ovarian = system: OVCAR-4 ovarian
HOP-62 NSCLC = system: HOP-62 NSCLC
ACHN renal = system: ACHN renal
COLO 205 colon = system: COLO 205 colon
DMS 273 small cell lung = system: DMS 273 small cell lung
HCT-15 colon = system: HCT-15 colon
K-562 leukemia = system: K-562 leukemia
NCI-H522 lung = system: NCI-H522 lung
SK-MEL-2 melanoma = system: SK-MEL-2 melanoma
HL-60(TB) leukemia = system: HL-60(TB) leukemia
CCRF-CEM leukemia = system: CCRF-CEM leukemia

Measured: TGI

COc1cccc(NC(=O)CC(=O)N2NC(c3ccccc3)C(N=Nc3cccc(C(=O)O)c3)C2=O)c1 (stereo not given)
not listed: COLO 205 colon | DMS 273 small cell lung | HCT-15 colon | K-562 leukemia | NCI-H522 lung | SK-MEL-2 melanoma | HL-60(TB) leukemia | CCRF-CEM leukemia
> 100 µM: all other assays above

COC(=O)[C@]12CSCN1C(=O)C(C(C)=O)=NN2C(=O)[C@](OC)(c1ccccc1)C(F)(F)F
not listed: DLD-1 colon | CAKI-1 renal | SK-OV-3 ovarian | HCC-2998 colon | A498 renal | HOP-92 NSCLC | SR leukemia | UACC-257 melanoma | HL-60(TB) leukemia | CCRF-CEM leukemia
> 100 µM: all other assays above

Nc1nc2c(nc(N)n2Cc2ccccc2)c(=O)[nH]1
not listed: NCI-H226 lung | SNB-78 CNS | SF-539 CNS
> 100 µM: all other assays above

— PubChem BioAssay (NCI)
